Experimental data: US20160124002A1, “METHOD FOR DETECTING HYPOXIA OR DIAGNOSING HYPOXIA-RELATED DISEASES” (SEOUL NATIONAL UNIVERSITY R&DB FOUNDATION, priority 2013, published 2016)

Test system: THP-1 cell line
Experiment: Metabolites in culture medium of THP-1 cells under low oxygen with HIF-1 inhibition (LC/Q-TOF MS)
Type: cell-based, human
Settings: THP-1 culture medium, low oxygen (1% O2)
Experimental: A THP-1 cell line, a human monocyte-derived cell line was cultured in the conditions of regular oxygen (21% oxygen), low oxygen (1% oxygen), and regular oxygen after low oxygen (reoxygenation), and then, the metabolites included in the culture media were identified and quantified using a LC/Q-TOF MS analysis as follows.
The human-derived monocyte cells (THP-1) (Korean Cell Line Bank, KCLB No. 40202) at 5×10^5 cells/4 mL medium were cultured in DMEM (Dulbecco's modified Eagle's medium) including 10% FBS (fetal bovine serum) under the condition of regular oxygen (21% O2, 5% CO2) at 37° C. for 24 hours, the condition of low oxygen (1% O2, 5% CO2) at 37° C. for 24 hours, or the condition of regular oxygen for 16 hours after low oxygen for 8 hours (reoxygenation) at 37° C.
After that, the media without the cells were isolated to obtain the samples to be analyzed. The media were subjected to a centrifugation at 3000 rpm and 4° C. to obtain supernatants only. The supernatants were then aliquoted and stored in a −70° C. cryogenic deep-freezer, and were thawed immediately before use.
In order to decrease the expression of a hypoxia-inducible factor-1 (HIF-1), a major regulator in a low oxygen environment, two types of si-HIF-1alpha (#1, 5′-CAAAGUUAAAGCAUCAGG-3′; #2, 5′-UGUACUGUCCUGUGGUGA-3′) were prepared, and then used for transfection into the cells using Lipofectamine RNA iMAX reagents (Life Technologies, USA) following the manufacturer's instruction. In addition, 2-methoxyestradiol (2ME2) and 17-N-Allylamino-17-demethoxygeldanamycin (17-AAG) used (Selleck chemicals) as the inhibitors of HIF-1 were used, and YC-1 was purchased from A.G. Scientific. The cells were treated also with 2ME2 and 17-AAG at the concentrations of 100 μM during the exposure of a low oxygen condition.
H2O (400 μl) at 4° C. and medium (100 μl) were put into a 1.5 ml micro tube so as to be diluted. After that, the sample was mixed well using a vortex, and then was filtered/centrifuged at 4° C. and 14,000 g for 20 minutes to obtain the supernatant thereof. The supernatant was collected in assay vials. In addition, for a QC (quality control) assay, the diluted samples of 50 μl from all the samples were mixed (pooling).
The samples that were prepared as described above were isolated by the system equipped with a reverse column, Zorbax SB-C18, 50×2.1 mm, 1.8 μm (Agilent Technologies, USA) in Binary Agilent 1200 series HPLC (Agilent Technologies). At this time, the assay sample in the amount of 5 μl was injected so as to pass through the column that was heated at 40° C. The metabolite sample was subjected to a gradient elution with 98% solvent A (2 mM ammonium formate and 0.1% formic acid in H2O) and 2% solvent B (0.1% formic acid in methanol) at the rate of 400 μl/min for 21 minutes. In order to avoid a cross-contamination, a blank run was performed between the sample runs.
ESI algorithm was used by coupling an Agilent 6530 quadrupole time-of-flight (Q-TOF) mass spectrometer (Agilent Technologies) with HPLC. Four centroid data per one second for one spectrum from 100 to 1100 m/z were obtained, and the m/z for all the spectra were calibrated in real time using the reference value externally supplied.
The metabolites were first identified from the mass spectra in the HMDB (http://www.hmdb.ca/) and METLIN (http://metlin.scripps.edu/) database using a software (Agilent MassHunter Qualitative Analysis (version B.05.00), Agilent Mass Profiler Professional (version B.02.02)). After that, the cleavage pattern by the LC/MS/MS assay of the corresponding metabolite was subjected to an additional confirmation work as compared to a practical standard material (Cayman, Ann Arbor, Mich., USA).
The relative concentration of the corresponding metabolites was calculated using the chromatograph area of the respective metabolite in the culture solution obtained from the corresponding cells. […]

[1] = treated with HIF-1 inhibitor (2ME2 and 17-AAG at 100 μM), FIG. 4
[2] = HIF-1 expression inhibited by si-RNA, FIG. 3

| Molecule | 5-HETE that was increased under the low oxygen condition (H) [1] | 5-oxoETE that was increased under the low oxygen condition (H) [1] | 5-HETE that was increased under the low oxygen condition (H) [2] | 5-oxoETE that was increased under the low oxygen condition (H) [2] |
| --- | --- | --- | --- | --- |
| OCc1ccc(-c2nn(Cc3ccccc3)c3ccccc23)o1 [YC-1] | decreased | decreased |  |  |
| C=CCNC1=C2C[C@@H](C)C[C@H](OC)[C@H](O)[C@@H](C)/C=C(\C)[C@H](OC(N)=O)[C@@H](OC)/C=C\C=C(/C)C(=O)NC(=CC1=O)C2=O [17-AAG, 17-N-Allylamino-17-demethoxygeldanamycin] | decreased | decreased |  |  |
| si-HIF-1a#1: si-RNA against HIF-1alpha, 5′-CAAAGUUAAAGCAUCAGG-3′ (chemistry not given here) |  |  | decreased | decreased |
| COc1cc2c(cc1O)CC[C@@H]1[C@@H]2CC[C@]2(C)[C@@H](O)CC[C@@H]12 [2ME2, 2-methoxyestradiol] | decreased | decreased |  |  |
| si-HIF-1a#2: si-RNA against HIF-1alpha, 5′-UGUACUGUCCUGUGGUGA-3′ (chemistry not given here) |  |  | decreased | decreased |
